Source: article PMC5057104, “The unravelling of the complex pattern of tyrosinase inhibition” (Scientific Reports, 2016)
Several values for one entry are separate records, joined by “and”; a condition that tells them apart may be missing. Identical values can stand only once. Entries after “also recorded” stand apart in the source; their conditions may differ. Like-named read-outs stand apart in the source and are kept apart here.

Tests used:
mushroom tyrosinase = conditions: cited from earlier work
[1] = biological target: T1, TyrBm (tyrosinase from Bacillus megaterium) (Priestia megaterium, UniProt B2ZB02); test: biochemical; assay type: binding; design: made in house; host or cells: Escherichia coli BL21
T1 sequence (B2ZB02 1-297): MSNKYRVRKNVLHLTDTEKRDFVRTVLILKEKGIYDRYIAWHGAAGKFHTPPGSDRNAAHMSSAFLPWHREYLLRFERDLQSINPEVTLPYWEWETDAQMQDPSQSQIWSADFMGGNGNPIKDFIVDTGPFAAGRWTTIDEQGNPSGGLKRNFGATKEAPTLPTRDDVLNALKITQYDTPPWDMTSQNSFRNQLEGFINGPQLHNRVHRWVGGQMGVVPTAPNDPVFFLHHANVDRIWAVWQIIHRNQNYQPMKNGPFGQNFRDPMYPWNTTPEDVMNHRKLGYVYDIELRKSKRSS
Experimental: TyrBm was labeled fluorescently with a RED dye (NT-647-NHS) according to the manufacturer’s protocol (NanoTemper Technologies, Munich, Germany). Non-bound dye was removed by purification of the enzyme on a Sephadex G-25 column with buffers provided in the commercial kit. […] Approximately 10 μl of sample was loaded into hydrophilic monolith NT capillaries and the measurement was performed in a NanoTemper Monolith NT.015T instrument. The emission of the red fluorescence was recorded at a focused location of the capillary. In the same location, a microscopic temperature gradient was created using an infrared laser and the fluorescence depletion was measured. According to changes in the fluorescent thermophoresis signal and the concentrations of unlabeled inhibitor, the dissociation constant values were determined by the NanoTemper analysis software.
(b) Titration of rising concentrations of
(c) Titration of rising concentrations of L-tyrosine (0-
The reactions contained constant concentration of TyrBm
(§1) (1 picture or pasted object on this page, not shown here)

[2] = biological target: T1, TyrBm (tyrosinase from Bacillus megaterium)
Experimental: The formation of HBP was monitored by measuring the absorbance at 475 nm[26].
Batel Deria,§, Margarita Kanteeva,§, Mor Goldfedera, Daniel Lecinab, Victor Guallarb,c,
Noam Adird, and Ayelet Fishmana,†
presence of reducing agents measured at 475 nm.
increasing concentrations of L-dopa (0-3 mM).
as the substrate in the presence of increasing concentrations of H2O2 (0-90 mM).
reactions contained 6 µg ml-1 of purified TyrBm, 50 mM PBS buffer pH 7.4 and 0.01 mM
as §1

[3] = biological target: T1, TyrBm (tyrosinase from Bacillus megaterium); conditions: 1 mM L-dopa
Experimental: Measurements were carried out using a Hansatech Oxygraph+ electrode (Norfolk, UK) in a reaction volume of 1000 μL.
(a) Spectrophotometric recordings measured at 475 nm. All measurements were performed in heptaplicates. (b) Oxygen consumption recordings. The inset presents the oxygen […]
measurements were performed in triplicates. The reactions contained 4 µg ml-1 of purified […]
The slopes representing the activity rate are given for each graph.
as §1

[4] = biological target: T1, TyrBm (tyrosinase from Bacillus megaterium); test: biochemical
Experimental: Tyrosinase inhibitory activity was determined spectrophotometrically in 96-well plates with a final volume of 200 μl. First, 50 mM PBS buffer pH 7.4 and 0.01 mM CuSO4 were mixed with 6 μg ml^−1 of purified enzyme. Then, the mixture was incubated at 40 °C for 2 minutes. […] Specific activity was calculated as the ratio of the conversion rate and the total protein content as determined by the Bradford analysis method (Bio-Rad, Israel). All measurements were performed in seven replicates.

[5] = biological target: T1, TyrBm (tyrosinase from Bacillus megaterium); test: Kinetic analysis of tyrosinase (Lineweaver-Burk plots); assay type: biochemical; design: made in house; host or cells: Escherichia coli BL21
Experimental: All measurements were performed in seven replicates.
The inhibitor concentrations were mentioned above. The inhibition kinetics module of Sigma Plot 13.0 software was used (Systat Software, Inc., Richmond, CA, USA). All measurements were performed in 5-replicates.

[6] = tested on: Agaricus bisporus tyrosinase; conditions: HQ as substrate; cited from earlier work

In the case of `O=c1cccccc1O` [Tropolone], the Inhibition mode (mushroom tyrosinase) is listed as “mixed”.
`N[C@@H](Cc1ccc(O)cc1)C(=O)O` [L-tyrosine] showed a Kd ([1]; read-out: KD) of 0.1 ± 0.03 µM.
In the case of `Oc1ccc(O)cc1` [HQ, hydroquinone], the “IC50 with L-dopa higher in comparison to L-tyrosine” value (mushroom tyrosinase) is listed as 80 fold, the Ki (mushroom tyrosinase; competitive, ref 25 Chawla et al.) is listed as 83 µM and the IC50 (mushroom tyrosinase; monophenols) is listed as 33.5 µM. For the same compound, the Vmax ([2]; HQ as substrate in the presence of H2O2 (100 mM)) was 19 µmol/min/mg, the “activity of TyrBm with L-dopa and HQ higher than with L-dopa alone” value ([2]; absorbance readings at 475 nm, 1 mM L-dopa, 0.1 mM HQ) was 17% and the “TyrBm activity with HQ as a sole substrate” value ([2]; several hours, without H2O2 or L-dopa, visual, vs control without enzyme) was “low activity was visually observed”. The Kd [1] was 9 ± 1 µM, the “dissociation constant higher than L-tyrosine” value [1] was 90 fold and the “activity of TyrBm with L-dopa and HQ higher than with L-dopa alone” value ([3]; oxygen consumption measurements, 0.1 mM HQ) was 8%. The “effect on TyrBm activity on L-dopa” value ([3]; spectrophotometric and oxygen consumption recordings, 0.1 mM compound) was “enhances activity”, the IC50 [4] was 32 ± 2 µM and the Inhibition mode ([5]; diphenolase activity, substrate L-dopa) was “no inhibition; also recorded: does not inhibit”. The Inhibition mode ([5]; monophenolase activity, substrate L-tyrosine) was “competitive”, the Ki ([5]; substrate L-tyrosine) was 40 ± 10 µM and the “Vmax (apparent, in presence of inhibitor)” value ([5]; substrate L-tyrosine) was 9.0 µmol/min/mg and 9.0 ± 0.5 µmol/min/mg. The “kcat (in presence of inhibitor)” value ([5]; substrate L-tyrosine) was 5.3 s⁻¹ and the Km [6] was 250 µM.
